Blank lines part the entries; values can stand above or below the molecule they belong to.
Legend:
[1] = due to metabolic lability; cited from earlier work
human B1R = target: T1, human B1R (Homo sapiens, UniProt P46663); conditions: human B1R-expressing CHO cells; cited from earlier work
T1 construct: host or cells: CHO cells
T1 sequence (P46663 1-353): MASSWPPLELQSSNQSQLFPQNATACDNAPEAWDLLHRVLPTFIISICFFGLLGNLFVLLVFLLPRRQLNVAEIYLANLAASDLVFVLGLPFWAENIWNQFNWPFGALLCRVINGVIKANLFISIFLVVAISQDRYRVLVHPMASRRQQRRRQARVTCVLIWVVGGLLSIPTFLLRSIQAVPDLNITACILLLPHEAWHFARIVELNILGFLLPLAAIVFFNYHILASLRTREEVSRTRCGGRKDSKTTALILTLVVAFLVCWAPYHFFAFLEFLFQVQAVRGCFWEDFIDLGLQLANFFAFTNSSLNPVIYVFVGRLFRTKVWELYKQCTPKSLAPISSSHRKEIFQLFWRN

[2] = target: T2, human Bradykinin B1 receptor (Homo sapiens, UniProt P46663); assay: Calcium flux assay (FLIPR), CHO-K1 cells expressing human Bradykinin B1 receptor, absence of 0.1% BSA (hB1 free IC50); assay type: cell-based; conditions: absence of 0.1% BSA in assay buffer
T2 construct: host or cells: CHO-K1
T2 sequence (P46663 1-353): T1 sequence (P46663 1-353)
In short: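 Peak FLIPR fluorescence (538 nm) after B1 agonist peptide addition gave IC50s, scaled between DMSO and full block by 20 µM Lys-(Des-Arg-Leu)-Bradykinin. Compounds were preincubated 30 min at 28° C with calcium-dye-loaded CHO-K1 cells expressing human B1, at 8 concentrations in triplicate, 1% DMSO final.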

Male Sprague Dawley rats = assay: Rat CFA in vivo model (mechanical hyperalgesia, paw withdrawal threshold); conditions: for Paw withdrawal threshold 2 hours post-compound: 2 hours post-compound (Table 5)
Experimental: Male Sprague Dawley rats were used. Mechanical hyperalgesia was induced by injecting 25 μL of Complete Freund's Adjuvant (CFA) into the plantar surface of one hind paw. Mechanical hyperalgesia was measured using the Pressure Application Measurement apparatus (Ugo Basile, Gemonio, Italy). Briefly, a linearly increasing pressure was applied to an area of ˜50 mm^2 of the plantar side of the hind paw until a behavioural response (paw withdrawal) was observed or until the pressure reached 1000 gf. The pressure at which the behavioural response occurred was recorded as the “Paw Withdrawal Threshold” (PWT). Both CFA-injected and contralateral PWTs were determined for each rat, in each treatment group and at each time point of the studies. The Compound Examples were administered orally in a vehicle of dimethylsulfoxide (DMSO), Polyethylenglycol (PEG) and 2-hydroxypropyl-beta-cyclodextrin (HPCD) (v/v/v=3:20:77). Rats received a first dose of […] of Compound Example per kg body weight 1 hour before CFA injection and a second dose 24 hours after the CFA injection. Mechanical hyperalgesia testing was performed approximately 2 hours before CFA injection, then 2 and 4 hours after the second dose of Compound Example (i.e. 26 and 28 hours after CFA treatment). Data were expressed as the mean±S.D. Area Under the Curve (AUC) of PWTs (defined in table 3 as “AUC of Paw withdrawal threshold (AUC 0-4 hours) post-vehicle” with respect to vehicle group or “AUC of Paw withdrawal threshold (AUC 0-4 hours) post-drug” with respect to Compound Example). Data were analysed by performing a one-way ANOVA followed by a Dunnett's post hoc test. For p values less than 0.05 the results were deemed to be statistically significant.

[3] = target: T3, native human Bradykinin B1 receptor (Homo sapiens, UniProt P46663); assay: Calcium flux assay (FLIPR) with IMR-90 human fibroblasts expressing Bradykinin B1 receptor after IL-1beta induction (hB1 IMR-90); assay type: cell-based; conditions: IMR-90 human fibroblasts after IL-1beta induction, read-out: hB1 IMR90 IC50
T3 construct: which express native human Bradykinin B1 receptor after induction with human IL-1beta; Coriell Institute; host or cells: IMR-90 human foetal lung fibroblasts, induced with human IL-1beta
T3 sequence (P46663 1-353): T1 sequence (P46663 1-353)
Experimental: Calcium Flux Assay (FLIPR) with Human Fibroblasts Expressing Bradykinin B1 Receptor (hB1 IMR-90)
The Calcium flux Assay was carried out utilising IMR-90 human foetal lung fibroblasts (American Type Culture Collection, Rockville, MD; and Coriell Institute, Camden, New Jersey), which express native human Bradykinin B1 receptor after induction with human IL-1beta.
The fibroblasts were cultured in complete growth media comprised of Dulbecco's modified Eagle's medium (DMEM; Sigma) containing 10% foetal bovine serum, 4 mM L-glutamine, and 1% nonessential amino acids. The cells were maintained in a humidified atmosphere with 5% CO2 at 37° C. and were sub-cultured at a ratio of 1:3, every other day.
For the assay, IMR-90 fibroblasts were harvested using TrypLE Express (GIBCO/Invitrogen) and seeded into 384-well plates (Corning Cellbinding Surface, Cat. 3683) at a density of 15000 cells/well. The following day, cells were treated with 0.35 ng/mL human IL-1beta in 10% FBS/MEM for 3 h to up-regulate Bradykinin B1 receptor. Induced cells were loaded with fluorescent calcium indicator by incubation with 2.5 μM Fluo-4/AM (Invitrogen) at 37° C., 5% CO2 for 2 h in the presence of 2.5 mM probenecid in 1% FBS/MEM. […] Compound examples were assayed at 8 concentrations in triplicate. […] A peptide antagonist Lys-(Des-Arg-Leu)-Bradykinin (Bachem, Brackley) at 20 µM was used to determine the full inhibition as control. IC50 values were determined by the same way described for the FLI PR assay with recombinant cells.

[4] = cited from earlier work
[5] = cited from earlier work; remark: listed apart in the source
[6] = cited from earlier work; remark: listed apart in the source

SMILES: C[C@@H](NC(=O)C1(NC(=O)C(F)(F)F)CC1)c1ccc(-c2cccc(Cl)c2C(=O)O)cc1F [MK-0686]
pharmacokinetic profile [1]: suboptimal

SMILES: COC(=O)c1c(Cl)cccc1N1CCC(CNC(=O)C2(NC(=O)C(F)(F)F)CC2)CC1
binding affinity (human B1R): highest

IC50 [2]: 7 nM
IC50 [3]: 2.8 nM
SMILES: O=C(O)c1cc(NC(=O)C2(c3ccc(OC(F)(F)F)cc3F)CC2)cc(F)c1-c1cnn(C2CCC2)c1 [Example 43, 2-(1-Cyclobutyl-1H-pyrazol-4-yl)-3-fluoro-5-[({1-[2-fluoro-4-(trifluoromethoxy)phenyl]cyclopropyl}carbonyl)amino]benzoic acid]
Paw withdrawal threshold 4 hours post-compound (Male Sprague Dawley rats; 0.75 mg/kg p.o.): 599 ± 28 gf (ns)
Paw withdrawal threshold 4 hours post-compound (Male Sprague Dawley rats; 3 mg/kg p.o.): 610 ± 21 gf (ns)
Paw withdrawal threshold 4 hours post-compound (Male Sprague Dawley rats; 15 mg/kg p.o.): 709 ± 18 gf (****)

SMILES: C[C@@H]1CC[C@H](C)N1C(=O)c1ccc([C@@H](C)NC(=O)C2(NC(=O)c3cc(F)cc(C(F)(F)F)c3)CC2)c(F)c1
pharmacokinetic profile in rat [4]: reasonable
human metabolic stability [5]: poor
aqueous solubility [6]: reasonable

IC50 [2]: 47 nM
IC50 [3]: 28 nM
SMILES: CC(C)n1cc(-c2ccc(NC(=O)C3(c4ccc(OC(F)(F)F)cc4F)CC3)cc2C(=O)O)cn1 [Example 71, 5-[({1-[2-Fluoro-4-(trifluoromethoxy)phenyl]cyclopropyl}carbonyl)amino]-2-[1-(propan-2-yl)-1H-pyrazol-4-yl]benzoic acid]
Paw withdrawal threshold 2 hours post-compound (Male Sprague Dawley rats; 0.75 mg/kg p.o.): 591 ± 20 gf (ns)
Paw withdrawal threshold 2 hours post-compound (Male Sprague Dawley rats; 3 mg/kg p.o.): 628 ± 17 gf (ns)
Paw withdrawal threshold 2 hours post-compound (Male Sprague Dawley rats; 10 mg/kg p.o.): 742 ± 49 gf (****)

IC50 [2]: 6 nM
IC50 [3]: 14 nM
SMILES: O=C(O)c1cc(NC(=O)C2(c3ccc(C(F)(F)F)cc3)CC2)cc(F)c1-c1cnn(C2CCC2)c1 [Example 36, 2-(1-Cyclobutyl-1H-pyrazol-4-yl)-3-fluoro-5-[({1-[4-(trifluoromethyl)phenyl]cyclopropyl}carbonyl)amino]benzoic acid]

Source: patent US12023319B2, “Carboxylic acid aromatic amides” (priority 2016, dated 2024)
